Format in all cases: cell-based
The target in assay [1] is Bcl-xL/Bim heterodimer in SKBR3 breast cancer cells (Homo sapiens, UniProt Q07817). The assay is described as follows: Detection of Bcl-xL/Bim heterodimer with ANTI-HSBXB antibody in treated breast cancer cells, LI-COR imager. On the procedure: ABT-263 is a pro-apoptotic compound that can be used on whole cells to disrupt BH3 mediated interactions. Disruption of these heterodimers in treated cells is detected as loss of ANTI-HSBXB signal. Here the cells were treated with various concentrations of ABT-263 for 10 hours at 37° C., then rinsed, fixed with 4% PFA, and incubated with ANTI-HSBXB (a Bcl-xL/Bim heterodimer-specific antibody). IRDye 800CW goat anti-mouse antibody was used to detect the heterodimer specific mouse monoclonal antibody, and IRDye 800CW Goat anti-rabbit antibody was used to detect a commercial Bcl-xL rabbit monoclonal antibody. Cell numbers were normalized by using CellTag 700 Stain.
Chain of Bcl-xL/Bim heterodimer in SKBR3 breast cancer cells (Q07817 whole entry, one chain of several): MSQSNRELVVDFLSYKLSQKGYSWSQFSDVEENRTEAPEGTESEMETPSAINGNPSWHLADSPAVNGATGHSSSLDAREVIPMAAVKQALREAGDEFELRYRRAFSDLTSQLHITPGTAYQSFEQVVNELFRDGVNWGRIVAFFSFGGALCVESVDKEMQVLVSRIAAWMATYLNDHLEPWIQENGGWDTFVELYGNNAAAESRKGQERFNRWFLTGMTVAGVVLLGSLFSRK

The subject of another assay is Molm 13 cells. In words: Mitochondrial (BH3) profiling, Bcl-xL priming. Conditions: Molm 13 leukemia cell line, FIG. 3.
Another assay deals with DHL-6 cells. In words: Mitochondrial (BH3) profiling, Bcl-xL priming. Conditions: DHL-6 leukemia cell line, compared with Molm 13, FIG. 3.
A further assay concerns AHR cells. The assay is described as follows: Mitochondrial (BH3) profiling, Bcl-xL priming. Conditions: AHR leukemia cell line, FIG. 3. The source says: The Bcl-xL/Bim heterodimer (HSBXB) can be detected by flow cytometry using a method for intracellular staining with the HSBXB antibody. Three leukemia cell lines, AHR, DHL6 and MOLM 13 were chosen based on their having differing amounts of Bcl-xL, Bim priming as determined by mitochondrial profiling. Consequently, the response to the Bcl-xL restricted, the Bcl-xL/Bim dimer “priming”, is known to be present at different amounts. A high signal mediated by Hrk-BH3 peptide indicates the existence of Bcl-xL/Bim heterodimer.
The HSBXB signal was assessed by flow cytometry and compared to the Hrk-BH3 peptide signal in the BH3 profiling assay. Here, AHR, DHL6 and MOLM13 cells were incubated on ice for 3 hours, and then washed and incubated with HSBXB antibody or Bcl-xL antibody at 10 ug/ml for 20 minutes, and then washed and stained with secondary Alexa488-conjugated goat anti-mouse. Signals were corrected to IgG-2A isotype or secondary alone control. The Hrk-BH3 signal in the mitochondrial profiling of the three cell lines was plotted against normalized HSBXB FACS signal.

The source of these data is US20180100859A1, “SURROGATE FUNCTIONAL BIOMARKER FOR SOLID TUMOR CANCER” (EUTROPICS PHARMACEUTICALS, INC., priority 2015, published 2018).

In the case of `CC1(C)CCC(c2ccc(Cl)cc2)=C(CN2CCN(c3ccc(C(=O)NS(=O)(=O)c4ccc(N[C@H](CCN5CCOCC5)CSc5ccccc5)c(S(=O)(=O)C(F)(F)F)c4)cc3)CC2)C1` [ABT-263], the “time window where the disruption can be detected prior to caspase mediated membrane disruption” value in assay [1] lay in the range of 10 to 12 h. For the same compound, the “percent heterodimer specific signal (ANTI-HSBXB detection)” value in assay [1] (various concentrations, 10 hours at 37° C., FIG. 2) is recorded as “decreasing the quantity of ANTI-HSBXB detection”.

Regarding “Hrk-BH3: BH3 peptide HRK, SSAAQLTAARLKALGDELHQ, SEQ ID NO 8; Bcl-xL restricted (listed as Homo sapiens)”, the “degree of Bcl-xL priming relative to positive control” value was “less than 5%” in the assay on Molm 13 cells, “slightly higher” in the assay with DHL-6 cells and “above 60%” in the assay on AHR cells.
